Literature values as cited in patent publication US7105537B2, “2-substituted cyclic amines as calcium sensing receptor modulators” (Bristol-Myers Squibb Company, priority 2003, dated 2006).

Experiments:
[1] = tested on: osteopenic ovariectomized (OVX) rats; conditions: oral administration, in the presence of an anti-resorptive agent
[2] = intravenous bolus injection
postmenopausal women = conditions: placebo-controlled trial

Row | Compound | bone mass [1] | serum PTH [2] | reduction of the risk of non-traumatic, non-spine fractures (postmenopausal women) [%] | reduction of the risk of spine fractures (postmenopausal women) [%]
1 | CC(C)(Cc1ccc2ccccc2c1)NC[C@@H](O)COc1cccc(Cl)c1C#N [NPS-2143] | increase in bone mas | transient increase in serum PTH |  | 
2 | PTH peptide fragment (1–34): "the PTH peptide fragment (1–34) was shown to reduce the risk of spine fractures and non-traumatic, non-spine fractures" (SVSEIQLMHNLGKHLNSMERVEWLRKKLQDVHNF; Parathyroid hormone; UniProt P01270 32-65, looked up, fragment) |  |  | 54 | 65
